Blank lines part the entries; values can stand above or below the compound they belong to.
Key:
Type in all cases: cell-based
[1] = target: NMDARs in cultured hippocampal neurons (Rattus norvegicus, UniProt P35439+Q00959); assay: Whole-cell voltage clamp recordings of NMDAR currents in cultured hippocampal/cortical neurons; details: for Potentiation or depression of NMDAR-currents: tested in a similar fashion as Npam02, FIG. 4c
GluN1/GluN2B NMDARs = target: T1, GluN1/GluN2B NMDARs (Rattus norvegicus, UniProt P35439+Q00960); assay: Whole-cell patch clamp recordings in HEK293 cells transfected with GluN1/GluN2B; details: HEK293, Table 2, read-out: Normalized Potentiation GluN1/GluN2B
T1 construct: expressed in transfected cells; host or cells: HEK293

GluN1/GluN2A NMDARs = target: T2, GluN1/GluN2A NMDARs (Rattus norvegicus, UniProt P35439+Q00959); assay: Whole-cell patch clamp recordings in HEK293 cells transfected with GluN1/GluN2A
T2 construct: expressed in transfected cells; host or cells: HEK293
Method: Cells were transfected with a combination of pcDNA3-CMV expression vectors, each of which expressed one of the rat recombinant (GluN2AWT, GluN1WT, GluN2BWT) subunits. The sequences of all plasmids were confirmed by automated DNA sequencing. Human Embryonic Kidney 293 (HEK293 cells) were cultured in Dulbecco's Modified Eagle's Medium (DMEM) (Invitrogen) supplemented with 10% fetal bovine serum (FBS). When HEK293 cells achieved 90% confluence, plasmids of either GluN1 & GluN2A or GluN1 & GluN2B were co-transfected into the cells using Lipofectamine 2000 (Invitrogen, 11668019) according to manufacturer's instructions. HEK293 cells were then maintained in the 37° C. incubator with […] and 5% CO2 for 48 hrs before being used in experiments. The transfection ratios for the NMDAR subunit combinations were all 1:1 (GluN1/GluN2A or GluN1/GluN2B).
Whole cell patch-clamp recordings were performed under voltage-clamp mode using an Axopatch 200B or 1D patch-clamp amplifier (Molecular Devices). Whole-cell currents were recorded at a holding potential of −60 mV unless indicated elsewhere, and signals were filtered at 2 kHz, digitized at 10 kHz (Digidata 1322A). Recording pipettes (3-5 MΩ) were filled with intracellular solution containing (mM): CsCl 140, HEPES 10, Mg-ATP 4, QX-314 5, pH 7.20; osmolarity, 290-295 mOsm. BAPTA (10 mM) was added in the intracellular solution (unless otherwise specified). The coverslips were continuously superfused with extracellular solution containing (mM): NaCl 140, KCl 5.4, HEPES 10, CaCl2 1.3, glucose 20, pH 7.4; osmolarity, 305-315 mOsm. NMDA-induced currents were applied by NMDA through perfusion fast-step (Warner Instruments). With perfusion fast-step system, NMDA application was achieved by using a two-square barrel glass tubing and depending on the age of the cultured neurons, CNQX (10 μM), TTX (0.5 μM) or BIC (10 μM) were added in the extracellular solution to minimize the activation of ionotropic glutamate receptors and voltage-gated sodium channels, respectively. All experiments were performed at room temperature. Recordings from at least six HEK293 cells/neurons were performed for all active compounds. Data were pooled among HEK293 cells or primary neurons and composite dose-response data were fitted by the equation Percentage Response=100×Relative Efficacy/[1+(EC50/Concentration)nH], where EC50 is the concentration of agonist that produces a half-maximal response, relative efficacy is the response at maximally effective concentration relative to the maximal response of glutamate, and nH is the Hill slope.
GluN1/GluN2A NMDAR subtypes are an attractive target for positive allosteric modulation. The present inventors employed in silico computational drug discovery methods to conduct a virtual screen of purchasable lead-like compounds from the ZINC database (Irwin, J., et al. Abstr Pap Am Chem Soc (2005) 230:U1009) and some synthetic compounds to identify potential GluN1/GluN2A-NMDAR modulators. The in silico methods included large-scale docking against the interstice interface of the GluN1/GluN2A heterodimer and consensus scoring to select compounds for empirical testing. Candidate compounds were further screened by using GluN1/GluN2A transiently transfected in human embryonic kidney (HEK293) cells and tested by whole-cell patch clamp recordings.
The inventors used transiently transfected HEK293 cells expressing either GluN1/GluN2A or GluN1/GluN2B NMDARs and tested by whole-cell voltage patch clamp recordings to see whether selected compounds were controlling the subtype selectivity profile of the drugs.
Whole-cell patch clamp recordings were performed to measure glutamate evoked currents with chloride-based pipette solutions at a holding potential of −60 mV.

[2] = target: T3, GluN2A NMDARs in GluN2B-lacking neurons (Mus musculus, UniProt P35436+P35438); assay: Whole-cell recordings in GluN2B-knockout cortical neurons; details: 0.2 μM with NMDA 20 μM; conditional GluN2B-knockout neurons
T3 construct: endogenous in cells; host or cells: primary cortical neurons from GluN2B-knockout mouse embryos

[3] = HEK293, Table 2, read-out: Normalized Potentiation GluN1/GluN2A

T1 sequence (Q00960 27-1482, other chains not shown): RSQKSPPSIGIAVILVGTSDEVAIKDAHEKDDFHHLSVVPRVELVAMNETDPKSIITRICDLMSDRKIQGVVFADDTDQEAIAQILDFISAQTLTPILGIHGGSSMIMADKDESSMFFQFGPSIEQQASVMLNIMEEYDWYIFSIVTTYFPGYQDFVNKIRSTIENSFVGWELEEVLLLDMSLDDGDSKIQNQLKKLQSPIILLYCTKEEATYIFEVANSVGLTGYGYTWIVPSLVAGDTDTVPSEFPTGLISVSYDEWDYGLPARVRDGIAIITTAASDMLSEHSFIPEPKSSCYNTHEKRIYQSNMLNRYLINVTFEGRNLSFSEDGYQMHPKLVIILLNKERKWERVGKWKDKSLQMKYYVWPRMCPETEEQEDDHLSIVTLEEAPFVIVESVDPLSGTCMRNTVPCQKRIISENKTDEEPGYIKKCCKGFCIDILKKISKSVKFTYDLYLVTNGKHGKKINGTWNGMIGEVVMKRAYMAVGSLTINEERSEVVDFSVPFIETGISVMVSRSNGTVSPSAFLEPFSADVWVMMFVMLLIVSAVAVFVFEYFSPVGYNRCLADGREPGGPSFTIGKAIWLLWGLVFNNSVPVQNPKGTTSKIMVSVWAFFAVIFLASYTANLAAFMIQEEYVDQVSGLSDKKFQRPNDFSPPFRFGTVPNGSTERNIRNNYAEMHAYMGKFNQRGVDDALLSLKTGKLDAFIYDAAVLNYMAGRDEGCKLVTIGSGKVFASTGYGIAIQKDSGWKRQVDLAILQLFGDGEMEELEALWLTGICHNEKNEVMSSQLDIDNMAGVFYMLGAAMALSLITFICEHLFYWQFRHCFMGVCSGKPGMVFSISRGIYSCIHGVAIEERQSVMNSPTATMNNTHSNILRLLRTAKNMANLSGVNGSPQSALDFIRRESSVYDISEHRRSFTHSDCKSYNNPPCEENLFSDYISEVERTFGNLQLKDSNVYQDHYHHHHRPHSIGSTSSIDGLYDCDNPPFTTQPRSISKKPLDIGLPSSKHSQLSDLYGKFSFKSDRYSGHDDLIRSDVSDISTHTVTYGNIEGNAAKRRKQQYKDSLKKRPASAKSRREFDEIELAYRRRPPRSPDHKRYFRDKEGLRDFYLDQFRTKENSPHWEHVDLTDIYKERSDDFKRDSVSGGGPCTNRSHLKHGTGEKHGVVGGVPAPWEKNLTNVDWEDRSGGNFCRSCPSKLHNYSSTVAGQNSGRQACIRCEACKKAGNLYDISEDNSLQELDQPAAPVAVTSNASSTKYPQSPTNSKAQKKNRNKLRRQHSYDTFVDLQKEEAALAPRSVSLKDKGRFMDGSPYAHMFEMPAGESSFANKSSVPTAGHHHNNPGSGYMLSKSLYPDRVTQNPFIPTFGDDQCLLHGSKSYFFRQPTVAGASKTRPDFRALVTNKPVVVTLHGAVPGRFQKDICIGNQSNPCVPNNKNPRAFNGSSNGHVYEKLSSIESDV
Sequence of NMDARs in cultured hippocampal neurons (Q00959 23-1464, other chains not shown): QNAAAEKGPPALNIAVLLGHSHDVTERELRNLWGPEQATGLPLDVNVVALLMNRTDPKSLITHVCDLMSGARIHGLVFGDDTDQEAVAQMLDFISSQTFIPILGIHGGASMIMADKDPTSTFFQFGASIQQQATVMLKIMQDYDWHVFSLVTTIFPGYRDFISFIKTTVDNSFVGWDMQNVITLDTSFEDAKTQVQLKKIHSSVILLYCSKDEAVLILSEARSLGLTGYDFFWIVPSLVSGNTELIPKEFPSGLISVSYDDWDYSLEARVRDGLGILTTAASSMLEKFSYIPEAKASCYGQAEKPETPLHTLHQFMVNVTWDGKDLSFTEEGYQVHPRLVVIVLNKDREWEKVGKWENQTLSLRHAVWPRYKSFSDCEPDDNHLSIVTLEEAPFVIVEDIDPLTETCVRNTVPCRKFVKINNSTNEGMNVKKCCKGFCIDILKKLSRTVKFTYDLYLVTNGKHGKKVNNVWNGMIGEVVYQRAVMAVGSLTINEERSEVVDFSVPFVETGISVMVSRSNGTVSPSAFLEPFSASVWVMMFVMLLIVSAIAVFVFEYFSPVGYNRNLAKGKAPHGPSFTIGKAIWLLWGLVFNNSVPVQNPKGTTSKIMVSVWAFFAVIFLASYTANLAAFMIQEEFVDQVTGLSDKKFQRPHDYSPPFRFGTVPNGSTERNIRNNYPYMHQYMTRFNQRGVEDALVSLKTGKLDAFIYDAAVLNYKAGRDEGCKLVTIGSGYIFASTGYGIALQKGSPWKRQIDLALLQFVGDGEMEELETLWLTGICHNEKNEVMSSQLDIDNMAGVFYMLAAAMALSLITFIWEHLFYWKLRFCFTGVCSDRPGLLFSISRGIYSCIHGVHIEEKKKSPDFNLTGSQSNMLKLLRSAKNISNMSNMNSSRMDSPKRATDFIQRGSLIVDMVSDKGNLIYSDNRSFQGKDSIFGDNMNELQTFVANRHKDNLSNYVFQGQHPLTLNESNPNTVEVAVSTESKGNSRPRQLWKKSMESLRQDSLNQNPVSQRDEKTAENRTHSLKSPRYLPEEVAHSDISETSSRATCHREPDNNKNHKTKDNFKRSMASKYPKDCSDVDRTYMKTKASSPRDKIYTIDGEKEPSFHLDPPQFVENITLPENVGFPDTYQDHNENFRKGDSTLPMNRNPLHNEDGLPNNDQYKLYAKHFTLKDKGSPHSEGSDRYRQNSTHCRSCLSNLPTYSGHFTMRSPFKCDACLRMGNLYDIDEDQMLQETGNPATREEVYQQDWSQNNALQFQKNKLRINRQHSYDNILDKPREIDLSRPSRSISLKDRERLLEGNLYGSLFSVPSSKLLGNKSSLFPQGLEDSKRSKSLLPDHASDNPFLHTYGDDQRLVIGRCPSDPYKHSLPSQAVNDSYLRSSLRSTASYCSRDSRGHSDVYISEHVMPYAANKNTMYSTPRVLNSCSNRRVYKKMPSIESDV
T2 sequence (Q00959 23-1464, other chains not shown): as above

activation at 100 µM (GluN1/GluN2B NMDARs): -28 ± 5.11% | activation at 100 µM (GluN1/GluN2A NMDARs; [3]): 26.2 ± 2.24% | Normalized Potentiation (GluN1/GluN2A NMDARs; Table 1, positive modulation of GluN1/GluN2A NMDARs, concentration not given): 2.61 ± 9.69%
Compound: O=C(N/N=C/c1cccc(O)c1O)c1ccccc1 [Npam01, (E)-N′-(2,3-dihydroxybenzylidene)benzohydrazide]
Potentiation or depression of NMDAR-currents [1]: no observable potentiation or depression effect

activation at 100 µM (GluN1/GluN2B NMDARs): -54.6 ± 5.48% | activation at 100 µM (GluN1/GluN2A NMDARs; [3]): 33.7 ± 4.84%
Compound: Cc1ccccc1C(=O)N/N=C/c1cccc(O)c1O [Npam04, (E)-N′-(2,3-dihydroxybenzylidene)-2-methylbenzohydrazide]
Potentiation or depression of NMDAR-currents [1]: no observable potentiation or depression effect

activation at 100 µM (GluN1/GluN2B NMDARs): -54.6 ± 5.87% | activation at 100 µM (GluN1/GluN2A NMDARs; [3]): 28.2 ± 2.47%
Compound: O=C(N/N=C/c1cccc(O)c1O)c1cccc([N+](=O)[O-])c1 [Npam64, (E)-N′-(2,3-dihydroxybenzylidene)-3-nitrobenzohydrazide]

Block of the Npam02-increased NMDAR currents (GluN1/GluN2A NMDARs; 0.2 μM co-applied with both co-agonists): completely blocked | Block of NMDAR-currents [2]: 90.73±1.11%
Compound: C[C@H](NC(c1cccc2[nH]c(=O)c(=O)[nH]c12)P(=O)(O)O)c1ccc(Br)cc1 (stereo partly drawn) [NVP-AAM007, reference compound]

activation at 50 µM (GluN1/GluN2B NMDARs; 50 μM (footnote *)): -48.6 ± 4.77% | activation at 50 µM (GluN1/GluN2A NMDARs; HEK293, Table 2, 50 μM (footnote *), read-out: Normalized Potentiation GluN1/GluN2A): 41.7 ± 6.78%
Compound: Cc1cccc(C(=O)N/N=C/c2cccc(O)c2O)c1 [Npam71, (E)-N′-(2,3-dihydroxybenzylidene)-3-methylbenzohydrazide]

The remaining lines, values behind:

Compound: N[C@@H](CCCP(=O)(O)O)C(=O)O [APV, reference compound]
Block of currents ([1]; 50 μM): blocked all currents

Compound: COc1cc(Cl)cc(/C=N/NC(=O)c2ccccc2Br)c1O [Npam75, (E)-2-bromo-N′-(5-chloro-2-hydroxy-3-methoxybenzylidene)benzohydrazide]
activation at 100 µM (GluN1/GluN2B NMDARs): -17 ± 2.14% | activation at 100 µM (GluN1/GluN2A NMDARs; [3]): 57.2 ± 3.78%

Compound: CN[C@H](CC(=O)O)C(=O)O [NMDA, reference compound]
pEC50 of NMDA dose-response curve ([1]; cultured hippocampal neurons, FIG. 13): 1.484±0.082 μM | EC50 ([1]; cultured hippocampal neurons, FIG. 13, read-out: EC50 of NMDA dose-response curve): 30.5 ± 11.7 µM

Reference: patent US11166924B2, “N-methyl-d-aspartate receptor allosteric modulators and methods for their use” (Qingdao Primedicine Pharmaceutical Company, Ltd., priority 2016, dated 2021)
